Results as given in patent US8691838B2, “Heterocycles as protein kinase inhibitors” (Amgen Inc., priority 2008, dated 2014).
pKi: −log10 of the molar value.

Target: c-Met (Homo sapiens, UniProt P08581)
Test: c-Met receptor assay (HTRF kinase assay with GST-cMet (P) enzyme, gastrin substrate)
Description: A Kinase reaction Buffer was prepared as follows: 60 mM HEPES pH 7.4; 50 mM NaCl; 20 mM MgCl2; 5 mM MnCl2. When the assay was carried out, the following ingredients were freshly added: 2 mM DTT; 0.05% BSA; 0.1 mM Na3OV4.
Then incubated the plate at RT for 30 min.
KM ATP and KM gastrin for various enzymes were determined by HTRF/^33P labeling and HTRF methods.

Chain of c-Met (P08581 1058-1365): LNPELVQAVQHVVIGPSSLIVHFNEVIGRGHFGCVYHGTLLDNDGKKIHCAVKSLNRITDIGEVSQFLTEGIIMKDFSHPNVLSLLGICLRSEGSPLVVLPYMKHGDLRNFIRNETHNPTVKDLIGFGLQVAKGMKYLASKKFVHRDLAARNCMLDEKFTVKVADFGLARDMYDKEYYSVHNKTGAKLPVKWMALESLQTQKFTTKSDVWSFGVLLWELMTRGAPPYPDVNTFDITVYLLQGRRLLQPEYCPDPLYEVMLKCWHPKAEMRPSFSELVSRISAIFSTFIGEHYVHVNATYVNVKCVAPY

| SMILES | pKi |
| --- | --- |
| O=C1c2c(nnn2Cc2ccc3ncccc3c2)CCN1c1ccccc1 [Example 1, 5-phenyl-3-(quinolin-6-ylmethyl)-6,7-dihydro-3H-[1,2,3]triazolo[4,5-c]pyridin-4(5H)-one] | 6.44 |
| Cc1cc(N2CCc3nnn([C@H](C)c4ccc5ncccc5c4)c3C2=O)sn1 [Example 5, (R)-5-(3-methylisothiazol-5-yl)-3-(1-(quinolin-6-yl)ethyl)-6,7-dihydro-3H-[1,2,3]triazolo[4,5-c]pyridin-4(5H)-one] | 6.88 |
| Cc1cc(N2CCc3nnn([C@@H](C)c4ccc5ncccc5c4)c3C2=O)sn1 [Example 4, (S)-5-(3-methylisothiazol-5-yl)-3-(1-(quinolin-6-yl)ethyl)-6,7-dihydro-3H-[1,2,3]triazolo[4,5-c]pyridin-4(5H)-one] | 8.10 |
| Cc1cc(N2CCc3nnn(Cc4ccc5ncccc5c4)c3C2=O)sn1 [Example 2, 5-(3-methylisothiazol-5-yl)-3-(quinolin-6-ylmethyl)-6,7-dihydro-3H-[1,2,3]triazolo[4,5-c]pyridin-4(5H)-one] | 7.92 |

The next lines start with the values.

| pKi | SMILES |
| --- | --- |
| 5.96 | C[C@@H](c1ccc2ncccc2c1)n1nnc2ccn(Cc3ccccc3)c(=O)c21 [Example 31, (S)-5-benzyl-3-(1-(quinolin-6-yl)ethyl)-3H-[1,2,3]triazolo[4,5-c]pyridin-4(5H)-one] |
| 6.34 | CC(c1ccc2ncccc2c1)n1nnc2c(=O)[nH]ccc21 (racemic) [Example 10, (R/S)-1-(1-(quinolin-6-yl)ethyl)-1H-[1,2,3]triazolo[4,5-c]pyridin-4(5H)-one] |
| 8.47 | C[C@@H](c1ccc2ncccc2c1)n1nnc2ccn(-c3ccc(Cl)c(C(F)(F)F)c3)c(=O)c21 [Example 29, (S)-5-(4-chloro-3-(trifluoromethyl)phenyl)-3-(1-(quinolin-6-yl)ethyl)-3H-[1,2,3]triazolo[4,5-c]pyridin-4(5H)-one] |
| 5.88 | C[C@H](c1ccc2ncccc2c1)n1nnc2ccn(Cc3ccccc3)c(=O)c21 [Example 32, (R)-5-benzyl-3-(1-(quinolin-6-yl)ethyl)-3H-[1,2,3]triazolo[4,5-c]pyridin-4(5H)-one] |
| 6.33 | C[C@H](c1ccc2ncccc2c1)n1nnc2ccn(-c3ccc(Cl)c(C(F)(F)F)c3)c(=O)c21 [Example 30, (R)-5-(4-chloro-3-(trifluoromethyl)phenyl)-3-(1-(quinolin-6-yl)ethyl)-3H-[1,2,3]triazolo[4,5-c]pyridin-4(5H)-one] |
